Biological target: T1, Jack bean urease (Canavalia ensiformis, UniProt P07374)
T1 construct: purchased Fluka Co, Switzerland
Assay: biochemical
Conditions: for inhibition at 50 µg/mL: read-out: Percent of inhibition (50 μg/ml)
Procedure: For urease inhibition assays after addition of phosphate buffer pH = 6.8, sonication was performed for 3 min, followed by centrifugation and evaluating absorbance of upper solution in λ = 278 nm which is attributed to the urease. By using following equation […], where c is the concentration of solution (mol/L), b the Length of the UV cell, we can calculate the concentration of initially urease solution in this way. After appropriate dilution, the concentration of enzyme solution adjusted 2 mg/ml.
The assay mixture, containing 50 μl (2 mg/ml) of Jack-bean urease and 100 μl of different concentration of test compounds, which were dissolved in ethanol 20% previously, was added to 850 μl of 25mM urea and pre-incubated for 0.5 h in water bath at 37°C. The urease reaction was stopped after 30 min incubation by following procedure.
Urease activity was determined by measuring ammonia production using the indophenol method as described by Weatherburn. After pre-incubation, 500 μl of phenol reagent (1% w/v phenol and 0.005% w/v sodium nitroprusside) and 500 μl of alkali reagent (1% w/v NaOH and 0.075% active chloride NaOCl) were added to 100 μl of incubation mixture and kept at 37°C for 30 min.
The absorbance was measured at 625 nm. […] Percentage inhibitions were calculated using the formula (100 – (OD sample / OD control) × 100).
The concentration that provokes an inhibition halfway between the minimum and maximum response of each compound (relative IC50) was determined by monitoring the inhibition effect of various concentrations of compounds in the assay. The IC50 values were then calculated using GraphPad Prism 5 software.

T1 sequence (P07374 whole entry, looked up): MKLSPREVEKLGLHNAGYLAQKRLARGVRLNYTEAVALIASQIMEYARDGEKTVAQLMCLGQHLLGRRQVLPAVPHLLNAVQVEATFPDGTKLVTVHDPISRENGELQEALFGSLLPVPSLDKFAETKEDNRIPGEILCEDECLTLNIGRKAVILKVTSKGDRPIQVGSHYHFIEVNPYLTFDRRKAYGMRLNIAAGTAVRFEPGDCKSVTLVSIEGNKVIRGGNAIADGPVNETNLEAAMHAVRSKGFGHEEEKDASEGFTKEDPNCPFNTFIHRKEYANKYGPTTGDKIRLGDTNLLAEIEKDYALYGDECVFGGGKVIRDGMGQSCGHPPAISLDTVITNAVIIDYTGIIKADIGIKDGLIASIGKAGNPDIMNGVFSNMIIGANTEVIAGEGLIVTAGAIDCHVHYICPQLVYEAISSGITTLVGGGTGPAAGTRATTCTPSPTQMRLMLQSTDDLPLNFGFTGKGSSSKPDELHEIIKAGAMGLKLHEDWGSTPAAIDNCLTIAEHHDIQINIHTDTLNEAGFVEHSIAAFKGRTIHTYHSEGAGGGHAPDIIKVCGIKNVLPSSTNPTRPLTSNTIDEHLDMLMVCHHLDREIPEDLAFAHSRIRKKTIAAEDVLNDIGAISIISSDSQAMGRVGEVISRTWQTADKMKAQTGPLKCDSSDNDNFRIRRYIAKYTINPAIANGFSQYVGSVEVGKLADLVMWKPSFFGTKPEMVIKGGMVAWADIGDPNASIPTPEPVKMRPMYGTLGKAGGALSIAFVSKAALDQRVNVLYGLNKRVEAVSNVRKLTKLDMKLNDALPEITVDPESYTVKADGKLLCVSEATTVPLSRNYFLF

NC(N)=S [Thiourea, thiourea, reference compound]
Percent of inhibition (50 μg/ml) (50 μg/ml test compound, Jack bean urease, 25 mM urea, 37°C): 88.0%

CC(=O)O[C@@H]1CC[C@@]2(C)[C@@H](CC[C@]3(C)[C@@H]2C(=O)C=C2[C@@H]4[C@@H](C)[C@H](C)CC[C@]4(C)CC[C@]23C)[C@@]1(C)C(=O)O [compound 3, 3-O-acetyl-11-keto-β-boswellic acid]
IC50: 16.34 ± 0.063 µM | inhibition at 50 µg/mL: 37.4%

CC(=O)OC1CCC2(C)C(CCC3(C)C2C(O)C=C2C4C(C)C(C)CCC4(C)CCC23C)C1(C)C(=O)O (stereo not drawn) [compound 2, 3-O-acetyl-11-hydroxy-β-boswellic acid]
IC50: 9.21 ± 0.069 µM | inhibition at 50 µg/mL: 56.2%

C[C@H]1[C@H](C)CC[C@]2(C)CC[C@]3(C)C(=CC(=O)[C@@H]4[C@@]5(C)CC[C@@H](O)[C@](C)(C(=O)O)[C@@H]5CC[C@]43C)[C@H]12 [compound 4, 11-keto-β-boswellic acid]
IC50: 85.23 ± 0.065 µM | inhibition at 50 µg/mL: 39.1%
